Experimental data as given in patent US20260258397A1, “REAGENTS AND SYSTEMS FOR […]” (priority 2023, published 2026).
Where “and” joins values, the source holds several entries; their conditions need not be identical. Identical values can stand only once. Like-named read-outs stand apart in the source and are kept apart here.

What was measured:
[1] = Apparent Tm of HAB1 variants by thermal challenge and yeast surface display of PYR1^M; assay type: physicochemical; details: YSD of PYR1^M, 500 nM ABA, 20 nM HAB1 variant
Description: (§1) Except where noted, all proteins were expressed as N-terminal 6×His-MBP fusions primarily using the medium and method as described in ref. 17. For crystallographic structures, PYL2 and ΔN-HAB1^T+ were expressed in E. coli and purified as described previously 27. Assays for phosphatase activity and apparent Tm, measured via thermal challenge using yeast surface display were performed essentially as previously described 17.
Citrate-buffered saline was first prepared (CBS: 20 mM sodium citrate, 147 mM NaCl, 4.5 mM KCl). A portion of this CBS was removed and this aliquot was made into CBS^+++ by addition of freshly dissolved DTT to 1 mM, TCEP pH 8.0 to 1 mM, and MnCl2 to 10 mM followed by pH adjustment to 8.0 using 1 M sodium hydroxide. CBS^+++ was then sterile filtered and placed on ice. A further portion of CBS was removed and the above reagents were added in addition to bovine serum albumin at 0.2% w/v to produce CBSFF^+++, followed by adjustment of pH to 8.0 with 1 M sodium hydroxide and the solution was again sterile filtered and placed on ice. The remainder (and bulk) of the CBS was used to produce CBSF by addition of 0.1% w/v BSA with adjustment of pH to 8.0 using 1 M sodium hydroxide, and this solution was also sterile filtered, and 25 mL were retained at room temperature, with the bulk of the solution transferred to ice.
Determination of apparent Tm was performed using thermal melt. 130 AL of the ice-cold ammonium sulfate precipitates of HAB variants MBP-636 (“WT”), ΔN-HAB1^T+, MBP-724, MBP-725, and MBP-726 were pelleted in a microcentrifuge for 5 minutes at 17,000 g.
The supernatant was removed by pipette, discarded, and the pellet resuspended in an equivalent volume of ice-cold CBS^+++. Zeba™ spin desalting columns (Thermo) were equilibrated with CBS^+++ and the resuspended HABs were desalted and placed on ice. Each HAB was diluted to 400 nM concentration in CBS^+++ and aliquoted into PCR tubes at a 50 μL volume. These tubes were distributed into the blocks of a pair of Eppendorf Mastercycler X50i thermocyclers programmed for a thermal gradient as follows (in ° C.): (Machine #1 Gradient 30.0 to 60.0-30.0, 35.4, 39.3, 46.8, 50.6, 54.5, 60.0, Machine #2 Gradient 65.0 to 95.0-65.0, 70.4). The HAB aliquots were held at these temperatures for 30 minutes, followed by cooling to 4° C. in the thermocycler blocks. Once the aliquots had cooled, they were transferred to racks on ice and SO AL of CBSFF^+++ was added, such that each HAB was now at a concentration of 200 nM (10X) in CBSF^+++. The heat treated HAB aliquots were left on ice until the remainder of the labeling reactions were set up, about 1 hour. Labeling reactions were performed, measured, and analyzed as described previously (Steiner et al. 2020).

[2] = Phosphatase activity of 6xHis-MBP-ΔN-HAB1 variants using p-NPP; assay type: biochemical; details: error 1 SEM
Excerpt: FIG. 8: Assessment of stabilized, inactivated 6×His-MBP-ΔN-HAB1 variants. Experiments were repeated on two separate days using independently generated batches of protein. Error bars indicate 1 SD of 3 measurements. Sets of mutations for each variant are noted in Table 7. […] Fluorescence here refers to streptavidin-phycoerythrin.
as §1

[3] = molecular target: T1, PYR1^M/ΔN-HAB1^T+ (Arabidopsis thaliana, UniProt O49686, H60P/N90S); assay: PYR1 ELISA-like plate assay, immobilized PYR1^M with biotinylated ΔN-HAB1^T+; assay type: binding; details: for Amax [AU 450 nm]: global parameter
T1 construct: made in house; host or cells: E. coli
T1 sequence (O49686 whole entry H60P/N90S, other chains not shown): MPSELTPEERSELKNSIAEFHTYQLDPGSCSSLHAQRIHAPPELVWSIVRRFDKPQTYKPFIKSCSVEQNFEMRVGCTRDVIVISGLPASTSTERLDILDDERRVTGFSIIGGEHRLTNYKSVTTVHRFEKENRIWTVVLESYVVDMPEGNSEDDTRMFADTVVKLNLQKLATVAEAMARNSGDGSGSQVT
Description: PYR1 was immobilized overnight in clear plates, blocked with KPL milk diluent in buffer CBS ^17 (CBSM). All binding reactions were performed using CBSM. Detection was performed via binding a streptavidin-HRP conjugate to biotinylated ΔN-HAB1^T+ followed by incubation with a commercial TMB reagent. Lower limits of detection (LODs) were determined by linear regression of the response data in the low linear range using the formula LOD=3σy/m, where m is the slope of the response line and σy is the standard error of the y intercept using data combined from biological replicates.
Unconjugated 6×His-MBP-PYR1 variants were immobilized to Microlon clear plates (655081) using 100 μL of CBS without pH modification, at a protein concentration of 100 μg mL^−1, or 1.57 AM at 4° C. overnight. Wells assigned as no PYR controls received only CBS. Plates were sealed using Microseal B adhesive sealers (BioRad MSB-1001). The following day, the solutions were decanted by flicking and all wells were washed twice with 300 μL of CBS. Blocking was performed using 300 μL of KPL milk diluent/concentrate (SeraCare 5140-0011) diluted 1:20 according to manufacturer's protocol, hereafter referred to as CBSM, incubated at room temperature for 2 hours, during which time all other components of the assays were diluted and assembled in 96 well PCR plates (Biorad HSP9601). Binding reactions were assembled from 88 μL of CBSM, 2 AL of 50× concentrate of ligand, dissolved in anhydrous ethanol for ABA, or anhydrous DMSO for all other compounds, with 10 μL of HAB to be added. Blocked plates were decanted by flicking and were washed twice with 300 μL of CBSM, followed by vigorous tamping on a pad of paper towels. The sole exception to the pre-assembly was biotinylated ΔN-HAB1^T+, where 130 AL of ammonium sulfate precipitate was pelleted at 17,000 g for 10 minutes, and the supernatant removed. The pellet was stored on ice until the blocked and washed plates were ready to receive the binding reactions. ΔN-HAB1^T+ was exchanged into CBSM with 1 mM DTT and 1 mM TCEP (CBSM++) using Zeba™ spin desalting columns (Thermo) were equilibrated with CBSM++. ΔN-HAB1^T+ was diluted to 10× the final binding reaction concentration and was immediately added to the pre-assembled assays in PCR plates, which were mixed by pipetting and transferred to the washed, blocked Microlon plates. Microlon plates were transferred to a plate shaker (Heidolph Titramax 1000) for 30 minutes at room temperature with shaking at 800 rpm. Plates were decanted by flicking and were washed three times with 300 μL of CBSM, followed by vigorous tamping on a pad of paper towels. Detection was enabled by addition of 100 μL of streptavidin-horseradish peroxidase (Thermo, SA10001), diluted 1:25,000 into CBSM, incubated in the above plate shaker for 10 minutes. This was decanted by flicking and washed three times with 300 AL of CBSM and by vigorous tamping on a pad of paper towels. Bound HAB was detected through addition of 50 μL 1-Step™ Ultra TMB-ELISA Substrate Solution (Thermo, 34028), incubated in the above plate shaker for 15 minutes (PYR1^M(N90S/H60P) with ABA, PYR1 ^WIN-M and PYR1^4F-M. in specificity assays to avoid overdevelopment of positive control), or for 30 minutes (PYR1^N90S/MANDI with mandipropamid, and PYR1^WIN-M and PYR1^4F-M under ligand titrations). TMB development was quenched by addition of 50 μL of 2M sulfuric acid and plates were read at 450 nm using a Biotek Synergy H1 Hybrid multimode plate reader. Estimates of Kd,eff were performed using Graphpad Prism 8.4.3 using the specific binding with Hill slope nonlinear regression function. Best fits for Kd1 and Kd2 were determined from global nonlinear fitting of the ELISA data using a custom script written in MatLab 2019b.

[4] = tested on: PYR1 mutant receptors (ligand-dependent binding to HAB1); assay: Yeast two-hybrid screens and optimization for organophosphate sensors; assay type: cell-based, Arabidopsis
Description: Surviving cells were collected and used in subsequent positive selections for ligand-responsive receptors on SD,-Leu,-Trp,-Ura media supplemented with a specific test chemical (100 μM) for responsiveness to any of the 10-member panel of organophosphate compounds: diazinon, pirimiphos-methyl, azinphos-ethyl, dimethoate, chlorfenvinphos, disulfoton, parathion-methyl, bromophos-methyl, malathion, and monocrotophos; all compounds were purchased form (Sigma-Aldrich). Isolated colonies were tested by regrowth on ligand-containing media and by dose response using X-gal staining and Sanger sequenced (see FIG. 13a-d).
Recombination-based mutagenesis of hit receptors was used to generate subsequent molecular diversity for selection-based optimization experiments, using the same general strategy across all scaffolds utilized. […] The resulting shuffled DNA fragments were cloned into pBD, transformed into E. coli, colonies collected, and plasmids extracted.

## 724: stabilized dead 6 × His-MBP-ΔN-HAB1 variant with D243A instead of D204A [compound 724]
[1]; Biorep 1
  Tm, app (° C.): 54.1 °C
[1]; Biorep 2
  Tm, app (° C.): 44.8 °C
[2]; Biorep 1
  Phosphatase Activity (% of 636 at 50 mM p-NPP): 0.22 ± 0.005%
[2]; Biorep 2
  Phosphatase Activity (% of 636 at 50 mM p-NPP): 0.01 ± 0.001%

## 725: 6 × His-MBP-ΔN-HAB1 (C186S, D199A, D204A, S209V, D287E, S292N, S342A, N377A, N439S) [compound 725]
[1]; Biorep 1
  Tm, app (° C.): 50.7 °C
[1]; Biorep 2
  Tm, app (° C.): 45.5 °C
[2]; Biorep 1
  Phosphatase Activity (% of 636 at 50 mM p-NPP): 0.25 ± 0.01%
[2]; Biorep 2
  Phosphatase Activity (% of 636 at 50 mM p-NPP): 0.003 ± 0.004%

## CC1=CC(=O)CC(C)(C)[C@@]1(O)/C=C/C(C)=C\C(=O)O [ABA, abscisic acid]
[3]; global nonlinear fit, PYR1^M/ABA/ΔN-HAB1^T+ system, Biorep 1, read-out: KD1
  Kd: 820 nM
[3]; global nonlinear fit, PYR1^M/ABA/ΔN-HAB1^T+ system, Biorep 2, read-out: KD1
  Kd: 780 nM
[3]; global nonlinear fit, PYR1^M/ABA/ΔN-HAB1^T+ system, Biorep 3, read-out: KD1
  Kd: 2090 nM
[3]; global nonlinear fit, KD2 = binding constant of HAB1 variant (ΔN-HAB1^T+) for PYR1^M with ABA, Biorep 1, read-out: KD2
  Kd: 8 nM
[3]; global nonlinear fit, KD2 = binding constant of HAB1 variant (ΔN-HAB1^T+) for PYR1^M with ABA, Biorep 2, read-out: KD2
  Kd: 4 nM
[3]; global nonlinear fit, KD2 = binding constant of HAB1 variant (ΔN-HAB1^T+) for PYR1^M with ABA, Biorep 3, read-out: KD2
  Kd: 2 nM
[3]; PYR1^M/ABA/ΔN-HAB1^T+ system, Biorep 1
  Amax [AU 450 nm]: 2 AU 450 nm
[3]; PYR1^M/ABA/ΔN-HAB1^T+ system, Biorep 2
  Amax [AU 450 nm]: 2.8 AU 450 nm
[3]; PYR1^M/ABA/ΔN-HAB1^T+ system, Biorep 3
  Amax [AU 450 nm]: 2 AU 450 nm
[3]; optimized ELISA-like system, PYR1^M
  lower limit of detection (LOD): 2 nM and 0.7 ng/mL
[3]; optimized ELISA-like system, PYR1^M, read-out: effective Kd
  Kd: 9.7 nM

## CCOP(=O)(OCC)O/C(=C\Cl)c1ccc(Cl)cc1Cl [chlorfenvinphos]
[4]; after optimization
  affinity of receptors obtained, but not lower: 10 µM

## CNC(=O)CSP(=S)(OC)OC [dimethoate]
[4]
  affinity of receptors obtained, but not lower: 10 µM

## WT (636): 6 × His-MBP-ΔN-HAB1 (C186S, C274S)
[1]; Biorep 1
  Tm, app (° C.): 44.8 °C
[1]; Biorep 2
  Tm, app (° C.): 38.1 °C
[2]; Biorep 1
  Phosphatase Activity (% of 636 at 50 mM p-NPP): 100 ± 0.4%
[2]; Biorep 2
  Phosphatase Activity (% of 636 at 50 mM p-NPP): 100 ± 0.8%
